Assay results: patent publication US10729668B2, “Ketobutyrate compounds and compositions for treating age-related symptoms and diseases” (The Regents of the University of California, priority 2014, dated 2020)

Assays:
[1] = system: cardiomyocytes of neonatal rats; assay: Catecholamine (ISO, PE) induced hypertrophy of cardiomyocytes; type: cell-based, rat; settings: 1 mM
Source text: In additional experiments, cardiomyocytes of neonatal rats were isolated by collagenase digestion and cultured overnight in DMEM containing 10% FCS, and then culture medium was changed to serum-free high glucose DMEM with supplement of ITS (insulin, transferrin, and sodiumselenite).
Catecholamine-induced cardiac hypertrophy.

Huh7.5 cells = assay: MTT cytotoxicity assay; type: cell-based; settings: 100 nM to 1 mM, up to 72 hours
Protocol: As subjects age, their susceptibility to infection increases. Therefore, to determine whether α-KB reduces ones susceptibility to age-related infection, Huh7.5 cells were infected with the Renilla reporter HCV for 5 hours and subsequently treated with 1 mM and 1 μM of α-KB. 72 hours post treatment, the cells were lysed and luciferase activity was measured. JG-98, which is a suppressor of viral assembly, was used as a positive control and water was used as a negative control. […] To ensure that the anti-viral activity of α-KB is not the result of cytotoxicity, Huh7.5 cells were treated with 1 mM, 100 μM, 10 μM, 1 μM, and 100 nM α-KB. MTT assays were performed every 24 hours up to 72 hours post treatment. Luteolin, an anti-cancer compound which is cytotoxic, was used as a positive control and water was used as a negative control.

GMC101 C. elegans strain = assay: Paralysis in C. elegans Alzheimer's disease model; type: in vivo, Caenorhabditis elegans; settings: 4 mM, 30° C.
Protocol: Worms were age-synchronized by performing a timed egg lay for 3 hours with about 100 gravid adults and the eggs placed in a 20° C. incubator. Once the eggs had developed to the L4 stage at 42 hours post egg lay, they were picked onto NGM treatment plates containing 49.5 μM 5-fluoro-2′-deoxyuridine (FUDR, Sigma F0503) to prevent progeny production and either 4 mM α-KB or vehicle (water) control. The worms were then shifted to 30° C. to induce amyloid-beta aggregation and paralysis. […] Most paralyzed worms could still move their heads and part of their body. All worms were transferred to fresh treatment plates on Day 4.

C2C12 Cells = assay: Oxygen consumption rate (OCR) in C2C12 cells, Seahorse XF-24; type: cell-based, mouse; settings: 1 hour treatment
Protocol: Measurement of oxygen consumption rates (OCR). OCR measurements were made using a Seahorse XF-24 analyzer (Seahorse Bioscience). C2C12 Cells were seeded in Seahorse XF-24 cell culture microplates at 30,000 cells per well in DMEM media supplemented with 10% FBS and 10 mM glucose, and incubated at 37° C. and 5% CO2 overnight. Treatment with α-KB or DMSO (vehicle control) was for 1 hour. Cells were washed in unbuffered DMEM medium (pH 7.4, 10 mM glucose) just before measurements, and maintained in this buffer with indicated concentrations of α-KB. OCR was measured three times under basal conditions and normalized to protein concentration per well.

[2] = target: TOR (target of rapamycin) (Homo sapiens, UniProt P42345); assay: TOR inhibition
Isolated hearts = assay: Isolated heart ischemia and reperfusion (LVDP); settings: 30 minutes ischemia, 60 minutes reperfusion, post-ischemic administration
Protocol: Isolated hearts were subjected to 30 minutes ischemia followed by 60 minutes of reperfusion with control buffer, 2-KB, (R)-2-hydroxybutyrate, (R)-3-hydroxybutyrate (also known as ketone body), α-KG, and the Complex I inhibitor rotenone. LVDP is shown as a function of time.

Complex II = target: T1, Complex II (Mus musculus, UniProt Q8K2B3+Q9CQA3+Q9CXV1+Q9CZB0); assay: Complex II driven coupling assay, isolated liver mitochondria (succinate and rotenone); type: biochemical; settings: succinate supplemented
T1 construct: Mitochondria were isolated from mouse liver as described earlier; from tissue; host or cells: liver mitochondria of 3-month-old C57BL/6 mice
T1 sequence (Q8K2B3 43-664): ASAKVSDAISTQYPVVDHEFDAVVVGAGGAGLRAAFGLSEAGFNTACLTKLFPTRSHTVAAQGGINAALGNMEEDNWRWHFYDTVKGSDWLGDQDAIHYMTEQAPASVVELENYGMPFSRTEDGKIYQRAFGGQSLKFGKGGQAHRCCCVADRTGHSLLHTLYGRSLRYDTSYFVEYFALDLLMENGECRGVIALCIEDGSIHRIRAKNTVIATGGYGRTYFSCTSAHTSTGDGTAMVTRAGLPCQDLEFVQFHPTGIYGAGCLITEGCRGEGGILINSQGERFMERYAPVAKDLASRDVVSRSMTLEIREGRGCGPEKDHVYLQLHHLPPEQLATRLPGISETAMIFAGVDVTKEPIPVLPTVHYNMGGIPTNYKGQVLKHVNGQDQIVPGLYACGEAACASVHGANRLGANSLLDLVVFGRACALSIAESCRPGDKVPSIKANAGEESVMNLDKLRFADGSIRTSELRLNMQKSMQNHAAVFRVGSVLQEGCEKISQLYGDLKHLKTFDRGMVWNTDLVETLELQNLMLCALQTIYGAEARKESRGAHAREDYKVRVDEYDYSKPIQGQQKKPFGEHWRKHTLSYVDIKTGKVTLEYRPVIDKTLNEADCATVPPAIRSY
T1 sequence (Q9CQA3 31-282): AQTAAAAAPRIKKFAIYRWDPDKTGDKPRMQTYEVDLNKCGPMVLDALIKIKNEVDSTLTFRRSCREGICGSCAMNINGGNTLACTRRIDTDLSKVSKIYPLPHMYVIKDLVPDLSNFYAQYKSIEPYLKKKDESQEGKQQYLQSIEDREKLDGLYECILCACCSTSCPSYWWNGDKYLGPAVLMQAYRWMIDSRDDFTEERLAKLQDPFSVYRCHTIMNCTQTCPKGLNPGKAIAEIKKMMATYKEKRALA
T1 sequence (Q9CZB0 30-169): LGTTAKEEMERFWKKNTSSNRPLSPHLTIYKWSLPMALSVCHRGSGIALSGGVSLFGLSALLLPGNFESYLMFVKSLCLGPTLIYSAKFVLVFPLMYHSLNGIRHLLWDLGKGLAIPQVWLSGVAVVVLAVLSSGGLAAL
T1 sequence (Q9CXV1 57-159): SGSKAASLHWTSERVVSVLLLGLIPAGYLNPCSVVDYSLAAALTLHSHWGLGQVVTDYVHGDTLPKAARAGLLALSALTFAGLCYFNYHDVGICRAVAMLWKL
Protocol: Animal studies were performed under approved UCLA animal research protocols. Mitochondria from 3-month-old C57BL/6 mice were isolated. Briefly, livers were extracted, minced at 4° C. in MSHE+BSA (70 mM sucrose, 210 mM mannitol, 5 mM HEPES, 1 mM EGTA, and 0.5% fatty acid free BSA, pH 7.2), and rinsed several times to remove blood. All subsequent steps were performed on ice or at 4° C. The tissue was disrupted in 10 volumes of MSHE+BSA with a glass Dounce homogenizer (5-6 strokes) and the homogenate was centrifuged at 800×g for 10 minutes to remove tissue debris and nuclei. The supernatant was decanted through a cell strainer and centrifuged at 8,000×g for 10 minutes. The dark mitochondrial pellet was resuspended in MSHE+BSA and re-centrifuged at 8,000×g for 10 minutes. The final mitochondrial pellet was resuspended in 30 μl of MAS buffer (70 mM sucrose, 220 mM mannitol, 10 mM KH2PO4, 5 mM MgCl2, 2 mM HEPES, 1 mM EGTA, and 0.2% fatty acid free BSA, pH 7.2). Isolated mitochondrial respiration was measured by running coupling and electron flow assays as described. […]
Mitochondrial respiration was measured by running coupling and electron flow assays. […]

CCC(=O)C(=O)O [α-KB, α-ketobutyrate]
induced overexpression of ANF and BNP [1]: suppressed | ISO- and PE-induced hypertrophy ([1]; 48 hours): completely abolished | cytotoxicity (MTT) (Huh7.5 cells): not cytotoxic | delay of paralysis compared to vehicle treated worms (GMC101 C. elegans strain): up to 37% | basal respiration (C2C12 Cells): inhibited | maximal respiration (mitochondrial respiration upon FCCP treatment) (C2C12 Cells): inhibited | inhibition of TOR [2]: does not inhibit | heart function after ischemia (LVDP) (Isolated hearts): restores heart function after ischemia | mitochondrial respiration, Complex II-driven coupling (Complex II): no effect
